Measurements taken from patent US9469650B2, “Melampomagnolide B derivatives” (BOARD OF TRUSTEES OF THE UNIVERSITY OF ARKANSAS, priority 2013, dated 2016).

Legend:
SF-295 = test: panel of 60 human tumor cell lines, growth inhibition (CNS Cancer); conditions: Homo sapiens
NCI/ADR-RES = test: panel of 60 human tumor cell lines, growth inhibition (Ovarian Cancer); conditions: Homo sapiens
CAKI-1 = test: panel of 60 human tumor cell lines, growth inhibition (Renal Cancer); conditions: Homo sapiens
786-0 = test: as above; conditions: Homo sapiens
HOP-62 = test: panel of 60 human tumor cell lines, growth inhibition (Non-Small Cell Lung Cancer); conditions: Homo sapiens
OVCAR-5 = test: panel of 60 human tumor cell lines, growth inhibition (Ovarian Cancer); conditions: Homo sapiens
PC-3 = test: panel of 60 human tumor cell lines, growth inhibition (Prostate Cancer); conditions: Homo sapiens
NCI-H226 = test: panel of 60 human tumor cell lines, growth inhibition (Non-Small Cell Lung Cancer); conditions: Homo sapiens
M14 = test: panel of 60 human tumor cell lines, growth inhibition (Melanoma); conditions: Homo sapiens
DU-145 = test: panel of 60 human tumor cell lines, growth inhibition (Prostate Cancer); conditions: Homo sapiens
U251 = test: panel of 60 human tumor cell lines, growth inhibition (CNS Cancer); conditions: Homo sapiens
A498 = test: panel of 60 human tumor cell lines, growth inhibition (Renal Cancer); conditions: Homo sapiens
LOX IMVI = test: panel of 60 human tumor cell lines, growth inhibition (Melanoma); conditions: Homo sapiens
NCI-H522 = test: panel of 60 human tumor cell lines, growth inhibition (Non-Small Cell Lung Cancer); conditions: Homo sapiens
SF-268 = test: panel of 60 human tumor cell lines, growth inhibition (CNS Cancer); conditions: Homo sapiens
COLO 205 = test: panel of 60 human tumor cell lines, growth inhibition (Colon Cancer); conditions: Homo sapiens
SW-620 = test: as above; conditions: Homo sapiens; for GI50: SW-620, SW-620
HS 578T = test: panel of 60 human tumor cell lines, growth inhibition (Breast Cancer); conditions: Homo sapiens, Hs-578T

With `C=C1C(=O)O[C@H]2[C@H]1CC/C(COC(=O)Nc1n[nH]c(SC)n1)=C\CC[C@@]1(C)O[C@@H]21` [JVM 64, ((1aR,7aS,10aS,10bS,E)-1a-methyl-8-methylene-9-oxo-1a,2,3,6,7,7a,8,9,10a,10b-decahydrooxireno[2′,3′:9,10]cyclodeca[1,2-b]furan-5-yl)methyl-(5-(methylthio)-1H-1,2,4-triazol-3-yl)carbamate] the GI50 (SF-295; SF-295) was 14.1 µM, the CC50 (SF-295; SF-295, read-out: LC50) was 64.1 µM and the IC (TGI) (SF-295; SF-295, read-out: TGI) was 30.1 µM. It also gave a GI50 (NCI/ADR-RES) of 24.7 µM, a CC50 (NCI/ADR-RES; read-out: LC50) greater than 100 µM and an IC (TGI) (NCI/ADR-RES; read-out: TGI) greater than 100 µM. The GI50 (CAKI-1; CAKI-1) was 1.99 µM, the CC50 (CAKI-1; CAKI-1, read-out: LC50) was 36.6 µM and the IC (TGI) (CAKI-1; CAKI-1, read-out: TGI) was 6.93 µM. For the same molecule, the GI50 (786-0; 786-0) was 1.66 µM, the CC50 (786-0; 786-0, read-out: LC50) was 7.2 µM and the IC (TGI) (786-0; 786-0, read-out: TGI) was 3.45 µM. It also gave a GI50 (HOP-62; HOP-62) of 6.45 µM, a CC50 (HOP-62; HOP-62, read-out: LC50) of 64.9 µM and an IC (TGI) (HOP-62; HOP-62, read-out: TGI) of 22.3 µM. It also gave a GI50 (OVCAR-5; OVCAR-5) of 2.18 µM, a CC50 (OVCAR-5; OVCAR-5, read-out: LC50) of 24 µM and an IC (TGI) (OVCAR-5; OVCAR-5, read-out: TGI) of 5.92 µM. For the same molecule, the GI50 (PC-3; PC-3) was 8.51 µM, the CC50 (PC-3; PC-3, read-out: LC50) was 77 µM and the IC (TGI) (PC-3; PC-3, read-out: TGI) was 26.8 µM. It also gave a GI50 (NCI-H226; NCI-H226) of 10.2 µM, a CC50 (NCI-H226; NCI-H226, read-out: LC50) of 99.7 µM and an IC (TGI) (NCI-H226; NCI-H226, read-out: TGI) of 31.9 µM. It also gave a GI50 (M14; M14) of 1.59 µM, a CC50 (M14; M14, read-out: LC50) of 7.09 µM and an IC (TGI) (M14; M14, read-out: TGI) of 3.36 µM. For the same molecule, the GI50 (DU-145; DU-145) was 3.49 µM, the CC50 (DU-145; DU-145, read-out: LC50) was 38.4 µM and the IC (TGI) (DU-145; DU-145, read-out: TGI) was 13.1 µM. For the same molecule, the GI50 (U251; U-251) was 3.62 µM, the CC50 (U251; U-251, read-out: LC50) was 51 µM and the IC (TGI) (U251; U-251, read-out: TGI) was 15.8 µM. It also gave a GI50 (A498; A498) of 2.56 µM, a CC50 (A498; A498, read-out: LC50) of 27.8 µM and an IC (TGI) (A498; A498, read-out: TGI) of 7.67 µM. It also gave a GI50 (LOX IMVI; 5-dose assay) of 1.95 µM, a GI50 (LOX IMVI; NCI five dose) of 1.95 µM and a CC50 (LOX IMVI; read-out: LC50) of 19.8 µM. For the same molecule, the IC (TGI) (LOX IMVI; read-out: TGI) was 5.03 µM, the GI50 (NCI-H522; NCI-H522) was 1.26 µM and the CC50 (NCI-H522; NCI-H522, read-out: LC50) was 7.87 µM. It also gave an IC (TGI) (NCI-H522; NCI-H522, read-out: TGI) of 3.17 µM, a GI50 (SF-268; SF-268) of 3.73 µM and a CC50 (SF-268; SF-268, read-out: LC50) of 52.6 µM. It also gave an IC (TGI) (SF-268; SF-268, read-out: TGI) of 14.7 µM, a GI50 (COLO 205; COLO 205) of 1.79 µM and a CC50 (COLO 205; COLO 205, read-out: LC50) of 7.35 µM. It also gave an IC (TGI) (COLO 205; COLO 205, read-out: TGI) of 3.63 µM, a GI50 (SW-620; 5-dose assay) of 1.12 µM and a GI50 (SW-620; NCI five dose) of 1.12 µM. The CC50 (SW-620; SW-620, read-out: LC50) was 8.49 µM, the IC (TGI) (SW-620; SW-620, read-out: TGI) was 3.09 µM and the GI50 (HS 578T) was 2.44 µM. The CC50 (HS 578T; read-out: LC50) was greater than 100 µM and the IC (TGI) (HS 578T; read-out: TGI) was 8.75 µM.
